{"source": "paper PMC7010025", "about": "(EFSA Journal, 2017)", "key": {"[1]": {"system": "S. Typhimurium TA98, TA100, TA1535, TA1537 Escherichia coli WP2uvrA", "conditions": "ref Nucro‐Technics, 2011a, cited from earlier work; for Increase in colony counts per plate vs negative controls: positive controls"}, "[2]": {"conditions": "cited from earlier work; for Decarboxylation product concentration: starting batch held ~0.4% S9379"}, "[3]": {"system": "primary human lymphocytes", "conditions": "ref Nucro‐Technics, 2011b, cited from earlier work; for Cells with structural chromosomal aberrations: 20 h without S9‐mix"}, "[4]": {"conditions": "cited from earlier work; for Dry powder stability: 100°C up to 24 h"}, "[5]": {"conditions": "oral dosing in rat; ref Senomyx, 2011b; cited from earlier work"}, "[6]": {"conditions": "gavage, gestation days 6 through 20; ref WIL Research, 2012a; cited from earlier work"}, "[7]": {"conditions": "10 mg/kg oral, ref Senomyx, 2013, cited from earlier work; for Average recovered from faeces and urine: 72‐h collection"}, "[8]": {"conditions": "ref Senomyx, 2011a, cited from earlier work"}, "[9]": {"conditions": "male and female rats, highest dose tested; ref MPI, 2011b; cited from earlier work"}, "[10]": {"conditions": "ref WIL Research, 2012b; cited from earlier work"}, "[11]": {"conditions": "ref applicant dossier, cited from earlier work"}, "[12]": {"system": "bone marrow polychromatic erythrocytes", "conditions": "ref Nucro‐Technics, 2011c, cited from earlier work"}, "[13]": {"conditions": "human, 60‐min incubation; ref PharmOptima, 2011; cited from earlier work"}, "[14]": {"conditions": "read-out: Combined mean Cmax; diet 100 mg/kg per day, day 7; ref MPI, 2011b; cited from earlier work"}, "[15]": {"conditions": "rat, 60‐min incubation; ref PharmOptima, 2011; cited from earlier work"}, "[16]": {"system": "Salmonella Typhimurium strains, TA98 and TA100", "conditions": "up to 5,000 μg/plate, ref BioReliance, 2011, cited from earlier work"}, "Margins of safety": {"experiment": "Margins of safety", "conditions": "child; developmental toxicity NOAEL vs chronic APET"}, "[17]": {"conditions": "cake, 177°C 30 min, ref Senomyx, 2016"}, "[18]": {"conditions": "cookie, 204°C 8 min, ref Senomyx, 2016"}, "[19]": {"conditions": "hard candy, 149°C ~30 min, ref Senomyx, 2016"}, "[20]": {"conditions": "sulfate salt in sugar cookie, 177°C 10 min, 18 mg/kg"}, "[21]": {"conditions": "100 mg/kg per day gavage, day 7"}, "[22]": {"conditions": "cake, 177°C 30 min, nominal 5 mg/kg, ref Senomyx, 2016"}, "[23]": {"conditions": "cookie, 204°C 8 min, nominal 5 mg/kg, ref Senomyx, 2016"}, "[24]": {"conditions": "hard candy, 149°C ~30 min, nominal 15 mg/kg, ref Senomyx, 2016"}}, "note": "Entries after “also recorded” stand apart in the source; their conditions may differ. Where two headings read alike, the source gives them in different places.", "data": [{"molecule": "Nc1ccc2cc3ccccc3cc2c1", "note": "[2‐aminoanthracene]", "values": [{"measurement": "Increase in colony counts per plate vs negative controls", "setting": "[1]; experiments with S9‐mix", "value": "≥ 3.1", "unit": "fold"}]}, {"molecule": "O=[N+]([O-])c1ccc2c(c1)Cc1ccccc1-2", "note": "[2‐nitrofluorene]", "values": [{"measurement": "Increase in colony counts per plate vs negative controls", "setting": "[1]; experiments without S9‐mix", "value": "≥ 3.1", "unit": "fold"}]}, {"molecule": "Nc1c2ccccc2nc2ccccc12", "note": "[9‐aminoacridine]", "values": [{"measurement": "Increase in colony counts per plate vs negative controls", "setting": "[1]; experiments without S9‐mix", "value": "≥ 3.1", "unit": "fold"}]}, {"molecule": "Cc1cc(N)c2c(OCC(C)(C)C(=O)NC(C)C)cccc2n1", "note": "[S9379, 4‐amino‐5‐(3‐(isopropylamino)‐2,2‐dimethyl‐3‐oxopropoxy)‐2‐methylquinoline]", "values": [{"measurement": "Decarboxylation product, % of [FL‐no: 16.130] nominal", "setting": "[2]; [17]", "value": 0.82, "unit": "%"}, {"measurement": "Decarboxylation product concentration", "setting": "[2]; [17]", "value": 0.041, "unit": "mg/kg"}, {"measurement": "Breakdown product S9379, % of nominal [FL‐no: 16.130] concentration", "setting": "[2]; cake, cookie and candy prototypes", "value": "< 1", "unit": "%"}, {"measurement": "Decarboxylation product, % of [FL‐no: 16.130] nominal", "setting": "[2]; [18]", "value": 0.86, "unit": "%"}, {"measurement": "Decarboxylation product concentration", "setting": "[2]; [18]", "value": 0.043, "unit": "mg/kg"}, {"measurement": "Decarboxylation product, % of [FL‐no: 16.130] nominal", "setting": "[2]; [19]", "value": 0.94, "unit": "%"}, {"measurement": "Decarboxylation product concentration", "setting": "[2]; [19]", "value": 0.14, "unit": "mg/kg"}, {"measurement": "Concentration of potential degradant S9379", "setting": "[2]; sulfate salt in hard candy, nominal 24 mg/kg", "value": 0.04, "unit": "mg/kg"}, {"measurement": "Concentration of potential degradant S9379", "setting": "[2]; [20]", "value": 0.02, "unit": "mg/kg"}, {"measurement": "S9379, % of nominal sulfate salt concentration", "setting": "[2]; [20]", "value": 0.1, "unit": "%"}]}, {"molecule": "Cc1nc2cccc(OCC(C)(C)C(=O)NC(C)C)c2c(N)c1C(=O)[O-].[Na+]", "note": "[[FL‐no: 16.130] sodium salt, sodium 4‐amino‐5‐(3‐(isopropylamino)‐2,2‐dimethyl‐3‐oxopropoxy)‐2‐methylquinoline‐3‐carboxylate]", "values": [{"measurement": "Cells with chromosomal aberrations", "setting": "[3]; 3 h with S9‐mix, 125 μg/mL (control 3.5%)", "value": 5.0, "unit": "%"}, {"measurement": "Cells with chromosomal aberrations", "setting": "[3]; 3 h with S9‐mix, 250 μg/mL", "value": 4.0, "unit": "%"}, {"measurement": "Cells with chromosomal aberrations", "setting": "[3]; 3 h without S9‐mix, 250 μg/mL", "value": 2.0, "unit": "%"}, {"measurement": "Cells with structural chromosomal aberrations", "setting": "[3]; 125 μg/mL (control 1.5%)", "value": 2.0, "unit": "%"}, {"measurement": "Cells with structural chromosomal aberrations", "setting": "[3]; 250 μg/mL", "value": 1.0, "unit": "%"}, {"measurement": "Cells with structural chromosomal aberrations", "setting": "[3]; 500 μg/mL", "value": 3.0, "unit": "%"}, {"measurement": "Toxicity to tester strains", "setting": "[1]; any concentration including 5,000 μg per plate", "value": "No toxicity was observed"}, {"measurement": "Bacterial gene mutation assay result", "setting": "[1]; plate incorporation and pre‐incubation, with and without metabolic activation, up to 5,000 μg/plate", "value": "Negative"}]}, {"molecule": "Cc1nc2cccc(OCC(C)(C)C(=O)NC(C)C)c2c(N)c1C(=O)O.Cc1nc2cccc(OCC(C)(C)C(=O)NC(C)C)c2c(N)c1C(=O)O.O.O.O=S(=O)(O)O", "note": "[[FL‐no: 16.130] sulfate salt, 4‐Amino‐5‐(3‐(isopropylamino)‐2,2‐dimethyl‐3‐oxopropoxy)‐2‐methylquinoline‐3‐carboxylic acid hemisulfate monohydrate salt]", "values": [{"measurement": "Dry powder stability", "setting": "[4]; ref Senomyx, 2016", "value": "stable"}, {"measurement": "Recovery", "setting": "[2]; sulfate salt in hard candy, 149°C ~30 min, nominal 24 mg/kg", "value": 104, "unit": "%"}, {"measurement": "Recovery", "setting": "[2]; [20]", "value": 100, "unit": "%"}, {"measurement": "Bioequivalence to the candidate substance (systemic exposure)", "setting": "[5]", "value": "equivalent"}]}, {"molecule": "Cc1nc2cccc(OCC(C)(C)C(=O)NC(C)C)c2c(N)c1C(=O)O", "note": "[[FL‐no: 16.130], 4‐Amino‐5‐(3‐(isopropylamino)‐2,2‐dimethyl‐3‐oxopropoxy)‐2‐methylquinoline‐3‐carboxylic acid]", "values": [{"measurement": "Stability in aqueous solution", "setting": "[4]; 40°C, pH 2.8, 4.0 and 7.1, 4 weeks, ref applicant dossier", "value": "stable"}, {"measurement": "Dry powder stability", "setting": "[4]; ref Senomyx, 2016", "value": "stable"}, {"measurement": "Dry powder stability at 175°C", "setting": "[4]; 175°C, S9379 only decomposition product, ref Senomyx, 2016", "value": "thermal degradation may take place"}, {"measurement": "Result, dose range‐finding developmental toxicity study", "setting": "[6]", "value": "1,000 mg/kg bw per day"}, {"measurement": "Recovered in faeces", "setting": "[7]", "value": "75.5–99.5%"}, {"measurement": "Recovered in urine", "setting": "[7]", "value": "0.1–0.6%"}, {"measurement": "Average recovered from faeces and urine", "setting": "[7]; female rats", "value": 91.4, "unit": "%"}, {"measurement": "Average recovered from faeces and urine", "setting": "[7]; male rats", "value": 86.2, "unit": "%"}, {"measurement": "Combined mean AUC0–24", "setting": "[8]; [21]", "value": 232, "unit": "ng·h/mL"}, {"measurement": "Combined mean Cmax", "setting": "[8]; [21]", "value": 154, "unit": "ng/mL"}, {"measurement": "Oral bioavailability (%F)", "setting": "[8]; oral gavage, male and female rats, listed as candidate substance", "value": "0.53–1.19%"}, {"measurement": "Accumulation in plasma", "setting": "[8]; repeated oral dosing, seven consecutive days", "value": "No significant accumulation"}, {"measurement": "NOAEL following 13 weeks of dietary administration", "setting": "[9]", "value": 100, "unit": "mg/kg bw per day"}, {"measurement": "NOAEL, developmental toxicity study in the rat", "setting": "[10]", "value": "1,000 mg/kg bw per day"}, {"measurement": "Solubility in ethanol", "setting": "[11]; 95% ethanol", "value": "1,600 mg/L"}, {"measurement": "Solubility", "setting": "[11]; in water", "value": 700, "unit": "µg/mL"}, {"measurement": "Mean measured concentration", "setting": "[2]; [22]", "value": 5.8, "unit": "mg/kg"}, {"measurement": "Measured concentration", "setting": "[2]; [22]", "value": "5.1 to 6.1", "unit": "mg/kg"}, {"measurement": "Stability in model product prototypes", "setting": "[2]; cake, cookie and candy, typical processing conditions", "value": "stable"}, {"measurement": "Mean measured concentration", "setting": "[2]; [23]", "value": 5.4, "unit": "mg/kg"}, {"measurement": "Measured concentration", "setting": "[2]; [23]", "value": "5.1 to 5.8", "unit": "mg/kg"}, {"measurement": "Mean measured concentration", "setting": "[2]; [24]", "value": 13.1, "unit": "mg/kg"}, {"measurement": "Measured concentration", "setting": "[2]; [24]", "value": "12.7 to 13.4", "unit": "mg/kg"}, {"measurement": "Recovery, % of nominal concentration", "setting": "[2]; [24]", "value": 87, "unit": "%"}, {"measurement": "PCE/NCE ratio", "setting": "[12]; any dose tested", "value": "No statistically significant decrease"}, {"measurement": "In vivo micronucleus test result", "setting": "[12]; single oral gavage, 500, 1,000 and 2,000 mg/kg bw, 24, 36, 48 h, no evidence of bone marrow exposure", "value": "did not induce micronuclei; also recorded: Negative"}, {"measurement": "Metabolism by microsomes", "setting": "[13]", "value": "not metabolised"}, {"measurement": "Cmax", "setting": "[14]", "value": 317, "unit": "nM"}, {"measurement": "Metabolism by microsomes", "setting": "[15]", "value": "not metabolised"}, {"measurement": "Bacterial gene mutation assay result", "setting": "[16]; TA98, TA100, with and without S9‐mix", "value": "not mutagenic; also recorded: Negative"}, {"measurement": "Bacterial toxicity", "setting": "[16]", "value": "did not result in bacterial toxicity"}, {"measurement": "Margin of safety", "setting": "Margins of safety", "value": "27,000"}]}, {"molecule": "c1ccc2c(c1)cc1ccc3cccc4ccc2c1c34", "note": "[benzo[α]pyrene]", "values": [{"measurement": "Increase in colony counts per plate vs negative controls", "setting": "[1]; experiments with S9‐mix", "value": "≥ 3.1", "unit": "fold"}]}, {"molecule": "O=P1(N(CCCl)CCCl)NCCCO1", "note": "(stereo not shown) [cyclophosphamide monohydrate]", "values": [{"measurement": "Increase in colony counts per plate vs negative controls", "setting": "[1]; experiments with S9‐mix", "value": "≥ 3.1", "unit": "fold"}]}, {"molecule": "COS(C)(=O)=O", "note": "[methyl methanesulfonate]", "values": [{"measurement": "Increase in colony counts per plate vs negative controls", "setting": "[1]; experiments without S9‐mix", "value": "≥ 3.1", "unit": "fold"}]}, {"molecule": "[N-]=[N+]=[N-].[Na+]", "note": "[sodium azide]", "values": [{"measurement": "Increase in colony counts per plate vs negative controls", "setting": "[1]; experiments without S9‐mix", "value": "≥ 3.1", "unit": "fold"}]}]}
